Results: the supplement of paper PMC6315032

How the values were obtained:
Assay in all cases: apparent dissociation constant (pKDapp, Kinobeads competition, Cheng-Prusoff corrected) (-log10 M); higher = tighter binding
AKT1 = AKT1 (UniProt P31749); conditions: affinity matrix / lysate: Kinobeads, mixed HEK293/K-562/placenta lysate
BMX = BMX (UniProt P51813); conditions: affinity matrix / lysate: Kinobeads, mixed HEK293/K-562/placenta lysate
CAMKK2 = CAMKK2 (UniProt Q96RR4); conditions: affinity matrix / lysate: Kinobeads, mixed HEK293/K-562/placenta lysate
CDK10 = CDK10 (UniProt Q15131); conditions: affinity matrix / lysate: Kinobeads, mixed HEK293/K-562/placenta lysate
CHEK2 = CHEK2 (UniProt O96017); conditions: affinity matrix / lysate: Kinobeads, mixed HEK293/K-562/placenta lysate
Sequence of CHEK2 (O96017 whole entry): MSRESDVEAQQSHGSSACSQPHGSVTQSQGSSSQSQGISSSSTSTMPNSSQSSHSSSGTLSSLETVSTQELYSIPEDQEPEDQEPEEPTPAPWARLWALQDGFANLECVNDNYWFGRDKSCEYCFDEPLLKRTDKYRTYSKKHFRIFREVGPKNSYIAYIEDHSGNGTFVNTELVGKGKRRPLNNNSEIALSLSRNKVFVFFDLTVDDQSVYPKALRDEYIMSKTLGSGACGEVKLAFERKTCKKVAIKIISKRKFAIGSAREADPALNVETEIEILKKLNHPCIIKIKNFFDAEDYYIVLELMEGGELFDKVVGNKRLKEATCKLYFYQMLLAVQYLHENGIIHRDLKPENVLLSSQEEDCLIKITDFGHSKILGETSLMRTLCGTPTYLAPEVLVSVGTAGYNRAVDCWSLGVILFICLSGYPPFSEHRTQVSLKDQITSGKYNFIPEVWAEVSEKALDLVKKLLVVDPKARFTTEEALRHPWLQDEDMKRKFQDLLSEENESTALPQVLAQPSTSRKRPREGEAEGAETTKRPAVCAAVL

DAPK3 = DAPK3 (UniProt O43293); conditions: affinity matrix / lysate: Kinobeads, mixed HEK293/K-562/placenta lysate
EGFR = EGFR (UniProt P00533); conditions: affinity matrix / lysate: Kinobeads, mixed HEK293/K-562/placenta lysate
FGFR2 = FGFR2 (UniProt P21802); conditions: affinity matrix / lysate: Kinobeads, mixed HEK293/K-562/placenta lysate
HIPK2 = HIPK2 (UniProt Q9H2X6); conditions: affinity matrix / lysate: Kinobeads, mixed HEK293/K-562/placenta lysate
JAK2 = JAK2 (UniProt O60674); conditions: affinity matrix / lysate: Kinobeads, mixed HEK293/K-562/placenta lysate
LRRK2 = LRRK2 (UniProt Q5S007); conditions: affinity matrix / lysate: Kinobeads, mixed HEK293/K-562/placenta lysate
MAP2K3 = MAP2K3 (UniProt P46734); conditions: affinity matrix / lysate: Kinobeads, mixed HEK293/K-562/placenta lysate
MAP3K1 = MAP3K1 (UniProt Q13233); conditions: affinity matrix / lysate: Kinobeads, mixed HEK293/K-562/placenta lysate
MAP3K3 = MAP3K3 (UniProt Q99759); conditions: affinity matrix / lysate: Kinobeads, mixed HEK293/K-562/placenta lysate
Sequence of MAP3K3 (Q99759 whole entry): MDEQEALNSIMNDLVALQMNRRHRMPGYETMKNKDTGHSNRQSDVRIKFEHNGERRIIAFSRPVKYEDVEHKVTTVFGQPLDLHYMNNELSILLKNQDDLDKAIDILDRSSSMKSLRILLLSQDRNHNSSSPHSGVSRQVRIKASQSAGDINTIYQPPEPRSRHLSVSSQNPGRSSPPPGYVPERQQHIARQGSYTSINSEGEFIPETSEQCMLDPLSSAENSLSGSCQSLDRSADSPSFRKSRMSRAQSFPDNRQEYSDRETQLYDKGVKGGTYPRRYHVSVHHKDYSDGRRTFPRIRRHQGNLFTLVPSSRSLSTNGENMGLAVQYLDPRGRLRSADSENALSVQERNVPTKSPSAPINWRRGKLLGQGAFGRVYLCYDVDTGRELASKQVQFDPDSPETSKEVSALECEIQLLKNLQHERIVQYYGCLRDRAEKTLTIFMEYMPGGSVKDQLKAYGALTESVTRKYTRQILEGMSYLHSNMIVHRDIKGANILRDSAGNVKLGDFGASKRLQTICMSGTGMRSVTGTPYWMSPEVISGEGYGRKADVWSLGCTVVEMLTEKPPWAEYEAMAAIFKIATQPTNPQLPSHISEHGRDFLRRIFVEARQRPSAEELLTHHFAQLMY

MAP3K5 = MAP3K5 (UniProt Q99683); conditions: affinity matrix / lysate: Kinobeads, mixed HEK293/K-562/placenta lysate
MAP4K5 = MAP4K5 (UniProt Q9Y4K4); conditions: affinity matrix / lysate: Kinobeads, mixed HEK293/K-562/placenta lysate
MAPK8 = MAPK8 (UniProt P45983); conditions: affinity matrix / lysate: Kinobeads, mixed HEK293/K-562/placenta lysate
Sequence of MAPK8 (P45983 whole entry): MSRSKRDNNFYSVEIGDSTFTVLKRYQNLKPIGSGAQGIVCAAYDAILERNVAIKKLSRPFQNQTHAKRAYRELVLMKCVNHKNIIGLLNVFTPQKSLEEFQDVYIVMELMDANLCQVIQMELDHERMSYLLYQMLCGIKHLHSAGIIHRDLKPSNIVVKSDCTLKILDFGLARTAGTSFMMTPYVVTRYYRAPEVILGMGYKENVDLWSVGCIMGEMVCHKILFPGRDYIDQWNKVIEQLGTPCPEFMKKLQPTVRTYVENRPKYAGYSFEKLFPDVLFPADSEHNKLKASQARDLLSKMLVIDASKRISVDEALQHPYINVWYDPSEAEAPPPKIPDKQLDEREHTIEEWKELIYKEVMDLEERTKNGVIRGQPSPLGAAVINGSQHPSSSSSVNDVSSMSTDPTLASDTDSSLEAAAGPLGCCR

MAST3 = MAST3 (UniProt O60307); conditions: affinity matrix / lysate: Kinobeads, mixed HEK293/K-562/placenta lysate
MASTL = MASTL (UniProt Q96GX5); conditions: affinity matrix / lysate: Kinobeads, mixed HEK293/K-562/placenta lysate
NTRK1 = NTRK1 (UniProt P04629); conditions: affinity matrix / lysate: Kinobeads, mixed HEK293/K-562/placenta lysate
NUAK1 = NUAK1 (UniProt O60285); conditions: affinity matrix / lysate: Kinobeads, mixed HEK293/K-562/placenta lysate
PI4KB = PI4KB (UniProt Q9UBF8); conditions: affinity matrix / lysate: Lipid Kinobeads, mixed HeLa/Jurkat/K-562 lysate
PIK3C2A = PIK3C2A (UniProt O00443); conditions: affinity matrix / lysate: Lipid Kinobeads, mixed HeLa/Jurkat/K-562 lysate
PIK3R4 = PIK3R4 (UniProt Q99570); conditions: affinity matrix / lysate: Lipid Kinobeads, mixed HeLa/Jurkat/K-562 lysate
PIP4K2A = PIP4K2A (UniProt P48426); conditions: affinity matrix / lysate: Kinobeads, mixed HEK293/K-562/placenta lysate
Sequence of PIP4K2A (P48426 whole entry): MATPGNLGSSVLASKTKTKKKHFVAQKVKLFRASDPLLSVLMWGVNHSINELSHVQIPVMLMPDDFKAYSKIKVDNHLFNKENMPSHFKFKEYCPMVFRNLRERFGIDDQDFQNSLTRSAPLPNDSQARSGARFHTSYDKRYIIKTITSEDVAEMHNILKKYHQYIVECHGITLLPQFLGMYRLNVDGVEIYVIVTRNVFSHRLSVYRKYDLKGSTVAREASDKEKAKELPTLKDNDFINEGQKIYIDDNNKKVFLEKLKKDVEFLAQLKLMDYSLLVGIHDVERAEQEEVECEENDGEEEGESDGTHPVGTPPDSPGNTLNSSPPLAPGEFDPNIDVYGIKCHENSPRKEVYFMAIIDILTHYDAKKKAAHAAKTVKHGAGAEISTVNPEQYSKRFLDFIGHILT

PKN1 = PKN1 (UniProt Q16512); conditions: affinity matrix / lysate: Kinobeads, mixed HEK293/K-562/placenta lysate
Sequence of PKN1 (Q16512 whole entry, looked up): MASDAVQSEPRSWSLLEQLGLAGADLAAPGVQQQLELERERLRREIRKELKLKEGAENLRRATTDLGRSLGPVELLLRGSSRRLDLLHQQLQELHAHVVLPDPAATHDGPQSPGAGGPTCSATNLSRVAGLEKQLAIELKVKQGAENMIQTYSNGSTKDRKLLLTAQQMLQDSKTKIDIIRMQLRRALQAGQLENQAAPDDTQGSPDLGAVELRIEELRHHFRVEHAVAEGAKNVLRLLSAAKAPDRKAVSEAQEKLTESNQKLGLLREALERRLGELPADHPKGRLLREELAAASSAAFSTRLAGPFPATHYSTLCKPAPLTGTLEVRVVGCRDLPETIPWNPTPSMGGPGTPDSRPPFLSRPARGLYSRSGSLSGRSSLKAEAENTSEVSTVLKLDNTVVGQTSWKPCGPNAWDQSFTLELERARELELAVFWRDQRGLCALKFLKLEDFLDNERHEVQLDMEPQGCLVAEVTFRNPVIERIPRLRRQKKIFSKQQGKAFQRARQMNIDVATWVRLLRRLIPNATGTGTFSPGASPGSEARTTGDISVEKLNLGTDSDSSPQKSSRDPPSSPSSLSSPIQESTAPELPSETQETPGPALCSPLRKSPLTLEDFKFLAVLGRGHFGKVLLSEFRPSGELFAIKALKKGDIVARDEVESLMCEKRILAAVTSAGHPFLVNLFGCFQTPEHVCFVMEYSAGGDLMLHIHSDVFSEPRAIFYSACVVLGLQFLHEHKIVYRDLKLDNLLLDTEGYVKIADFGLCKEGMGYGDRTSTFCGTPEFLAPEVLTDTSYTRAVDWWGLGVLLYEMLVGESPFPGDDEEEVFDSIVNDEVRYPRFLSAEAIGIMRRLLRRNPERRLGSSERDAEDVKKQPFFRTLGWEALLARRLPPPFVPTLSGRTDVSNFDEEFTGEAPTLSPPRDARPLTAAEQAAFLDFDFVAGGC

PRKD3 = PRKD3 (UniProt O94806); conditions: affinity matrix / lysate: Kinobeads, mixed HEK293/K-562/placenta lysate
SNRK = SNRK (UniProt Q9NRH2); conditions: affinity matrix / lysate: Kinobeads, mixed HEK293/K-562/placenta lysate
Sequence of SNRK (Q9NRH2 whole entry): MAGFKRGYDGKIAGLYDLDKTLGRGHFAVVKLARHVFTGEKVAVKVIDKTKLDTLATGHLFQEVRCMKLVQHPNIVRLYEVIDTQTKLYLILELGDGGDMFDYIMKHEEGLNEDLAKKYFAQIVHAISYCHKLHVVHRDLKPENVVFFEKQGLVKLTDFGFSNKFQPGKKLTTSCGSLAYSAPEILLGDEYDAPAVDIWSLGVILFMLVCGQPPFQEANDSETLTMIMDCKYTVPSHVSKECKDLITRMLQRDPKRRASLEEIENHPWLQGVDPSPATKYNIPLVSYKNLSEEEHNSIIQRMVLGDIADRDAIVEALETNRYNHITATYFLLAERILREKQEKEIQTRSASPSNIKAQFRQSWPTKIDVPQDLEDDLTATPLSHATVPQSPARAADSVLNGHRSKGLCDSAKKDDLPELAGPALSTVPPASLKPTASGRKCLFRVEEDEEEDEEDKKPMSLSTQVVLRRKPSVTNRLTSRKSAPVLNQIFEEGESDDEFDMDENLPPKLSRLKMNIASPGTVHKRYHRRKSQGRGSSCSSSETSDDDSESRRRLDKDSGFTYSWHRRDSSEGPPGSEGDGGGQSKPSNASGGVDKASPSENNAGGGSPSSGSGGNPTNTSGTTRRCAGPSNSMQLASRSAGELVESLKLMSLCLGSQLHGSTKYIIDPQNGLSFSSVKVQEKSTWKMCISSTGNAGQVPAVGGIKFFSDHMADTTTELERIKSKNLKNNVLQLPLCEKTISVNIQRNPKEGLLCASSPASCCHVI

STK16 = STK16 (UniProt O75716); conditions: affinity matrix / lysate: Kinobeads, mixed HEK293/K-562/placenta lysate
STK17B = STK17B (UniProt O94768); conditions: affinity matrix / lysate: Kinobeads, mixed HEK293/K-562/placenta lysate
STK33 = STK33 (UniProt Q9BYT3); conditions: affinity matrix / lysate: Kinobeads, mixed HEK293/K-562/placenta lysate
TTK = TTK (UniProt P33981); conditions: affinity matrix / lysate: Kinobeads, mixed HEK293/K-562/placenta lysate
ZAK = ZAK (UniProt Q9NYL2); conditions: affinity matrix / lysate: Kinobeads, mixed HEK293/K-562/placenta lysate

Measured: apparent dissociation constant (-log10 M)

Sequence of BMX (P51813 whole entry): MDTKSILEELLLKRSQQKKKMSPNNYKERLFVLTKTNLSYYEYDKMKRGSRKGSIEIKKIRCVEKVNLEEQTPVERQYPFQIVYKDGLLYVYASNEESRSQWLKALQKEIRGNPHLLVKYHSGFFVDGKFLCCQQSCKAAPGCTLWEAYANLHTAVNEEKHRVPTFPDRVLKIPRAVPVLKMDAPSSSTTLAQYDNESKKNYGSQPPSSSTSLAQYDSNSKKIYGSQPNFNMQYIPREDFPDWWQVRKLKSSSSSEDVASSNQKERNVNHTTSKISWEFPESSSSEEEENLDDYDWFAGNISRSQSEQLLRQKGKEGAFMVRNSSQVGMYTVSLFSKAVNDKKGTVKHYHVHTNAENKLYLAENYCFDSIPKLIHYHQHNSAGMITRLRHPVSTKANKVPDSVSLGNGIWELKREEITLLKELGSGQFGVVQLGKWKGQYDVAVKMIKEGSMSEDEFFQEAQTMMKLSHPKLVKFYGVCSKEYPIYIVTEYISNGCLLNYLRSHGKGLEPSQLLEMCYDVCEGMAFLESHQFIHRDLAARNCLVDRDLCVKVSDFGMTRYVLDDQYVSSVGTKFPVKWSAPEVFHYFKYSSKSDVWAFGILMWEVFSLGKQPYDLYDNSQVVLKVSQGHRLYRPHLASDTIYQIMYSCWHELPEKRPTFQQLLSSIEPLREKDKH
Sequence of AKT1 (P31749 whole entry): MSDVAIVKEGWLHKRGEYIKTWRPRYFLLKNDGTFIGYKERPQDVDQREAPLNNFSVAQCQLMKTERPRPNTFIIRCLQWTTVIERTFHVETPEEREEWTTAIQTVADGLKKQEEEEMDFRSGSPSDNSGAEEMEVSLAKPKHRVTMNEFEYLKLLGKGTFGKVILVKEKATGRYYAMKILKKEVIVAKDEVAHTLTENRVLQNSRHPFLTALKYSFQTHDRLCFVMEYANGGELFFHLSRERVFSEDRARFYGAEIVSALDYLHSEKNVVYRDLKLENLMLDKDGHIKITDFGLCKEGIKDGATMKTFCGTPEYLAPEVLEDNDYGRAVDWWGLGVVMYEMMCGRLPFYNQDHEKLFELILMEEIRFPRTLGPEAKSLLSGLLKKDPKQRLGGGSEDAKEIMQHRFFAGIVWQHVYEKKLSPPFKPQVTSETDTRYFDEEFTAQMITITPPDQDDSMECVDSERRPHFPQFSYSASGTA

COc1ccc(-c2ccc3c(N4CCOC[C@@H]4C)nc(N4CCOC[C@@H]4C)nc3n2)cc1CO [AZD8055]
< 6: all assays above

CCNC(=O)Nc1ccc(-c2nc(N3CCOC[C@@H]3C)c3c(n2)C(C)(C)S(=O)(=O)C3)cc1 [CZ415]
< 6: all assays above
